Measurements taken from patent publication US20050137220A1 (Pharmacia Corporation, priority 2003, published 2005).
Counter-ions that a name gives are not always drawn.

Molecular target: MK-2 (Homo sapiens, UniProt P49137)
Experiment: Determination of MK-2 IC50 (phosphorylation of HSP-peptide, anion exchange resin capture assay)
Format: biochemical
Conditions: MK-2 Avg. IC50, additional values are replicate IC50 experiments; mixture of stereoisomers implied unless otherwise noted

Chain of MK-2 (P49137 whole entry, species assumed): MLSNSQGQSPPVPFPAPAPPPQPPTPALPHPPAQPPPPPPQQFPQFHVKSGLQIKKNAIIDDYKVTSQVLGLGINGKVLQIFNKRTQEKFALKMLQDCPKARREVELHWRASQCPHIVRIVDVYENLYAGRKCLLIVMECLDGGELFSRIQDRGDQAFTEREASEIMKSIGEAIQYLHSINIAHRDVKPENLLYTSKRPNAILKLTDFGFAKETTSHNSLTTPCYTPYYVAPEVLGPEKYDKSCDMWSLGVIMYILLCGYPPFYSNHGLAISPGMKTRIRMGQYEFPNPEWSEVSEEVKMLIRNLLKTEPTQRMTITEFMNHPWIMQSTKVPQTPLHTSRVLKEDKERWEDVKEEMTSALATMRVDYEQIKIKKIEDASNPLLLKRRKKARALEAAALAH

`COc1ccc2[nH]c3c(c2c1)CCNC3=S` [Example 97, 6-methoxy-2,3,4,9-tetrahydro-1H-beta-carboline-1-thione] gave an IC50 of 34.8 µM.

Same assay, conditions: additional values are replicate IC50 experiments; mixture of stereoisomers implied unless otherwise noted; read-out: MK-2 Avg. IC50

`O=C1NCCc2c1[nH]c1ccc(Cl)cc21` [Example 125, 1H-Pyrido[3,4-b]indol-1-one, 6-chloro-2,3,4,9-tetrahydro- or 6-chloro-2,3,4,9-tetrahydro-1H-beta-carbolin-1-one] and `O=C1NCCc2c1[nH]c1ccc(Br)cc21` [Example 117, 6-bromo-2,3,4,9-tetrahydro-1H-beta-carbolin-1-one] are within 1.5-fold of each other in IC50: 89.6 µM for the first, 69.6 µM for the second.

`CCOC(=O)C1(C(=O)OCC)NCCc2c1[nH]c1ccc(OC)cc21` [Example 171, diethyl 6-methoxy-2,3,4,9-tetrahydro-1H-beta-carboline-1,1-dicarboxylate] and `COc1ccc2[nH]c3c(c2c1)CCNC3(CC(=O)O)C(=O)O` (stereo not drawn) [Example 226, 1-(carboxymethyl)-6-methoxy-2,3,4,9-tetrahydro-1H-beta-carboline-1-carboxylic acid] cannot be ordered by IC50: > 200 µM for the first, > 200 µM for the second.

Going from `O=C(O)C1NCCc2c1[nH]c1ccc(OCc3ccc4ccccc4c3)cc21` (stereo not drawn) [Example 127, 6-(2-naphthylmethoxy)-2,3,4,9-tetrahydro-1H-beta-carboline-1-carboxylic acid hydrochloride] to `O=C(O)C1NCCc2c1[nH]c1ccc(OCc3cccnc3)cc21` (stereo not drawn) [Example 102, 6-(pyridin-3-ylmethoxy)-2,3,4,9-tetrahydro-1H-beta-carboline-1-carboxylic acid hydrochloride], the IC50 falls from 91.3 µM to 42.6 µM (2.1-fold). The second is the more potent here.

`Cc1cccc2c3c([nH]c12)C(C(=O)O)NCC3` (stereo not drawn) [Example 215, 8-methyl-2,3,4,9-tetrahydro-1H-beta-carboline-1-carboxylic acid hydrochloride] and `O=C(O)C1NCCc2c1[nH]c1cc(F)ccc21` (stereo not drawn) [Example 214, 7-fluoro-2,3,4,9-tetrahydro-1H-beta-carboline-1-carboxylic acid hydrochloride] cannot be ordered by IC50: > 200 µM for the first, > 200 µM for the second.

`COC(=O)C1(C)NCCc2c1[nH]c1ccccc21` (centres unmarked) [Example 212, 1h-Pyrido[3,4-B]Indole-1-Carboxylic Acid, 2,3,4,9-Tetrahydro-1-Methyl-,Methyl Ester] and `COC(=O)c1ccc2[nH]c3c(c2c1)CCNC3=O` [Example 270, methyl 1-oxo-2,3,4,9-tetrahydro-1H-beta-carboline-6-carboxylate] cannot be ordered by IC50: > 200 µM for the first, > 200 µM for the second.

`COc1ccc2[nH]c3c(c2c1)CCC(C)(C)C3=NO` (mixture of isomers) [Example 272, 6-methoxy-2,2-dimethyl-2,3,4,9-tetrahydro-1H-carbazol-1-one oxime] and `COc1ccc2[nH]c3c(c2c1)CCNC3CO` (stereo not drawn) [Example 221, (6-methoxy-2,3,4,9-tetrahydro-1H-beta-carbolin-1-yl)methanol] cannot be ordered by IC50: > 200 µM for the first, > 200 µM for the second.

`COC(=O)C12CCC(=O)N1CCc1c2[nH]c2ccc(OC)cc12` (centres unmarked) [Example 162, methyl 8-methoxy-3-oxo-2,3,6,11-tetrahydro-1H-indolizino[8,7-b]indole-11b(5H)-carboxylate] and `COC(=O)C1c2[nH]c3ccc(OC)cc3c2CCN1C(=O)C(F)(F)F` (stereo not drawn) [Example 207, methyl 6-methoxy-2-(trifluoroacetyl)-2,3,4,9-tetrahydro-1H-beta-carboline-1-carboxylate] cannot be ordered by IC50: > 200 µM for the first, > 200 µM for the second.

`COc1ccc2[nH]c3c(c2c1)C(Cc1ccc(OC(F)(F)F)cc1)CNC3C(=O)O` (stereo not drawn) [Example 185, 6-methoxy-4-[4-(trifluoromethoxy)benzyl]-2,3,4,9-tetrahydro-1H-beta-carboline-1-carboxylic acid] and `COc1ccc2[nH]c3c(c2c1)C(Cc1ccco1)CNC3C(=O)O` (stereo not drawn) [Example 222, 4-(2-furylmethyl)-6-methoxy-2,3,4,9-tetrahydro-1H-beta-carboline-1-carboxylic acid trifluoroacetate] cannot be ordered by IC50: > 200 µM for the first, > 200 µM for the second.

Compared with `COc1ccc2c3c([nH]c2c1)C(C(=O)O)NCC3` (stereo not drawn) [Example 217, 7-methoxy-2,3,4,9-tetrahydro-1H-beta-carboline-1-carboxylic acid hydrochloride], `COCCOc1ccc2[nH]c3c(c2c1)CCNC3C(=O)O` (stereo not drawn) [Example 135, 6-(2-methoxyethoxy)-2,3,4,9-tetrahydro-1H-beta-carboline-1-carboxylic acid] is lower in IC50: > 200 µM for the first, 110 µM for the second.

First: COC(=O)CCC1Cc2c([nH]c3ccc(OC)cc23)C(=O)N1 (stereo not drawn) [Example 147, methyl 3-(6-methoxy-1-oxo-2,3,4,9-tetrahydro-1H-beta-carbolin-3-yl)propanoate]
Second: COc1ccc2[nH]c3c(c2c1)CC(CCCO)NC3=O (stereo not drawn) [Example 81, 3-(3-hydroxypropyl)-6-methoxy-2,3,4,9-tetrahydro-1H-beta-carbolin-1-one]
The IC50 of the first is 6.7-fold higher: 136 µM for the first, 20.4 µM for the second.

`COC(=O)C1NC(CO)Cc2c1[nH]c1ccc(OC)cc21` (stereo not drawn) [Example 184, methyl 3-(hydroxymethyl)-6-methoxy-2,3,4,9-tetrahydro-1H-beta-carboline-1-carboxylate] and `COc1ccc2[nH]c3c(c2c1)CCNC3[C@H](O)CO` (stereo partly drawn) [Example 239, (1S)-1-(6-methoxy-2,3,4,9-tetrahydro-1H-beta-carbolin-1-yl)ethane-1,2-diol trifluoroacetate] cannot be ordered by IC50: > 200 µM for the first, > 200 µM for the second.

`O=C1NCCc2c1[nH]c1c(Cl)ccc(Cl)c21` [Example 252, 5,8-dichloro-2,3,4,9-tetrahydro-1H-beta-carbolin-1-one] and `O=C1NCCc2c1[nH]c1c(Cl)cccc21` [Example 262, 1H-Pyrido[3,4-b]indol-1-one,8-chloro-2,3,4,9-tetrahydro- or 8-chloro-2,3,4,9-tetrahydro-1H-beta-carbolin-1-one] cannot be ordered by IC50: > 200 µM for the first, > 200 µM for the second.

Going from `COc1cc2[nH]c3c(c2cc1OC)CCNC3C(=O)O` (stereo not drawn) [Example 201, 6,7-dimethoxy-2,3,4,9-tetrahydro-1H-beta-carboline-1-carboxylic acid trifluoroacetate] to `CCOC(=O)CNC(=O)COc1ccc2[nH]c3c(c2c1)CCNC3C(=O)O` (stereo not drawn) [Example 155, 6-[2-(2-ethoxy-2-oxoethylamino)-2-oxoethoxy]-2,3,4,9-tetrahydro-1H-beta-carboline-1-carboxylic acid hydrochloride], the IC50 falls from > 200 µM to 164 µM. The second is the more potent here.

Going from `COC(=O)C1c2[nH]c3ccc(OC)cc3c2CCN1Cc1ccccc1` (stereo not drawn) [Example 168, methyl 2-benzyl-6-methoxy-2,3,4,9-tetrahydro-1H-beta-carboline-1-carboxylate] to `COc1ccc2[nH]c3c(c2c1)CCN(Cc1ccc(C(F)(F)F)cc1)C3C(=O)O` (stereo not drawn) [Example 141, 6-methoxy-2-[4-(trifluoromethyl)benzyl]-2,3,4,9-tetrahydro-1H-beta-carboline-1-carboxylic acid], the IC50 falls from > 200 µM to 119 µM. The second is the more potent here.

Compared with `O=C(O)C1NCCc2c1[nH]c1c(OCc3ccccc3)cccc21` (stereo not drawn) [Example 194, 8-(benzyloxy)-2,3,4,9-tetrahydro-1H-beta-carboline-1-carboxylic acid], `CCOC(=O)c1ccc(COc2ccc3[nH]c4c(c3c2)CCNC4C(=O)O)o1` (stereo not drawn) [Example 133, 6-{[5-(ethoxycarbonyl)-2-furyl]methoxy}-2,3,4,9-tetrahydro-1H-beta-carboline-1-carboxylic acid] is lower in IC50: > 200 µM for the first, 105 µM for the second.

With `O=C(O)C1NCCc2c1[nH]c1ccc(OCC3CCCCC3)cc21` (stereo not drawn) [Example 198, 6-(cyclohexylmethoxy)-2,3,4,9-tetrahydro-1H-beta-carboline-1-carboxylic acid] the IC50 was > 200 µM.
